Results taken from patent US6914045B2, “Glycopeptide antibiotics” (Wyeth Holdings Corporation, priority 2001, dated 2005).
Values after ≈ are worked out from the molar mass of the structure shown.

Tests used:
Escherichia coli = test: in vitro antibacterial evaluation, MIC by broth dilution; type: cell-based; settings: 18 hours at 35° C.
Summary of the method: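 MIC is the lowest antibiotic concentration (tested 64-0.06 μg/mL) preventing growth of a 5×10^5 CFU/mL inoculum. Determined by broth dilution in Mueller-Hinton II medium following NCCLS standard M7-A2.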

[1] = anatomic pathology (histopathology of heart and kidney) in mice; type: in vivo; settings: CD-1 mice, 20 mg/kg intravenously daily for 9 days, necropsy day 10, microscopic histopathology
Protocol: Samples of tissues from necropsied mice were formalin-fixed, paraffin-embedded, sectioned, stained with hematoxylin and eosin, and examined microscopically. Histopathologic findings were recorded. These findings were subjectively graded on a scale corresponding to slight, mild, moderate, marked and severe as compared to untreated controls.

Staphylococcus sp. = test: in vitro antibacterial evaluation, MIC by broth dilution; type: cell-based; settings: broth dilution, 18 hours at 35° C.; for MIC Staphylococcus aureus (ATCC 29213): strain ATCC 29213; for MIC Staphylococcus aureus (GC 1131): strain GC 1131; for MIC Staphylococcus aureus (GC 3051): strain GC 3051; for MIC Staphylococcus aureus (GC 3053): strain GC 3053; for MIC Staphylococcus aureus (GC 4541): strain GC 4541; for MIC Staphylococcus aureus (GC 4542): strain GC 4542; for MIC Staphylococcus aureus-SMITH (GC 4543): strain GC 4543; for MIC Staphylococcus aureus (GC 4544): strain GC 4544; for MIC Staphylococcus aureus (GC 4545): strain GC 4545; for MIC Staphylococcus haemolyticus (GC 4546): strain GC 4546; for MIC Coagulase Negative Staphylococcus (GC 4547): strain GC 4547; for MIC Coagulase Negative Staphylococcus (GC 4548): strain GC 4548; for MIC Coagulase Negative Staphylococcus (GC 4549): strain GC 4549; for MIC Coagulase Negative Staphylococcus (GC 4551): strain GC 4551
Summary of the method: (§1)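 Test organisms, which included recent clinical isolates resistant to methicillin, penicillin and/or vancomycin, were inoculated at 5×10^5 CFU/mL into Muller-Hinton II […] containing antibiotic at 64-0.06 μg/mL. Minimum inhibitory concentrations were then read as the lowest level inhibiting growth.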

Enterococcus sp. = test: as above; type: cell-based; settings: broth dilution, 18 hours at 35° C.
Summary of the method: as §1

Streptococcus sp. = test: as above; type: cell-based; settings: broth dilution, 18 hours at 35° C.
Summary of the method: as §1

[2] = Enterococcus faecalis (ATCC 29212)
[3] = Enterococcus faecalis (GC 4552)
[4] = Enterococcus faecalis (GC 4553)
[5] = Enterococcus faecalis (GC 4554)
[6] = Enterococcus faecalis (GC 6189)

Structure (SMILES): CN=C1N(C)CC(C(O)C2NC(=O)C(Cc3ccc(OC4OC(CO)C(OC5OC(CO)C(O)C(O)C5O)C(O)C4O)cc3)NC(=O)C(C(C)c3ccccc3)NC(=O)CNC(=O)C(CO)NC(=O)C(C(O)C3CN(C)C(=NC)N3C3OC(CO)C(O)C(O)C3O)NC2=O)N1C (stereo not drawn) [Example 64, Cyclo[glycyl-β-methylphenylalanyl-O-(4-O-hexopyranosylhexopyranosyl)tyrosyl-3-(1,3-dimethyl-2-(methylimino)imidazolidin-4-yl)seryl-3-[3-hexopyranosyl-1-methyl-2-(methylimino)imidazolidin-4-yl]-serylseryl]]
- MIC Escherichia coli (ATCC 25922) (Escherichia coli): >128 µg/mL
- MIC Escherichia coli (GC 4559) (Escherichia coli): >128 µg/mL
- MIC Escherichia coli (GC 4560) (Escherichia coli): >128 µg/mL
- Anatomical Pathology (Day 10), Heart [1]: 0
- Anatomical Pathology (Day 10), Kidney [1]: 0
- MIC Staphylococcus aureus (ATCC 29213) (Staphylococcus sp.): >128 µg/mL
- MIC Staphylococcus aureus (GC 1131) (Staphylococcus sp.): >128 µg/mL
- MIC Staphylococcus aureus (GC 3051) (Staphylococcus sp.): >128 µg/mL
- MIC Staphylococcus aureus (GC 3053) (Staphylococcus sp.): >128 µg/mL
- MIC Staphylococcus aureus (GC 4541) (Staphylococcus sp.): >128 µg/mL
- MIC Staphylococcus aureus (GC 4542) (Staphylococcus sp.): >128 µg/mL
- MIC Staphylococcus aureus-SMITH (GC 4543) (Staphylococcus sp.): >128 µg/mL
- MIC Staphylococcus aureus (GC 4544) (Staphylococcus sp.): >128 µg/mL
- MIC Staphylococcus aureus (GC 4545) (Staphylococcus sp.): >128 µg/mL
- MIC Staphylococcus haemolyticus (GC 4546) (Staphylococcus sp.): >128 µg/mL
- MIC Coagulase Negative Staphylococcus (GC 4547) (Staphylococcus sp.): >128 µg/mL
- MIC Coagulase Negative Staphylococcus (GC 4548) (Staphylococcus sp.): >128 µg/mL
- MIC Coagulase Negative Staphylococcus (GC 4549) (Staphylococcus sp.): >128 µg/mL
- MIC Coagulase Negative Staphylococcus (GC 4551) (Staphylococcus sp.): >128 µg/mL
- MIC Coagulase Negative Staphylococcus (GC 6257) (Staphylococcus sp.; strain GC 6257): >128 µg/mL
- MIC Enterococcus avium (GC 4558) (Enterococcus sp.; Enterococcus avium (GC 4558)): 128 µg/mL (≈ 93.7 µM)
- MIC Enterococcus faecalis (ATCC 29212) (Enterococcus sp.; [2]): >128 µg/mL
- MIC Enterococcus faecalis (GC 4552) (Enterococcus sp.; [3]): >128 µg/mL
- MIC Enterococcus faecalis (GC 4553) (Enterococcus sp.; [4]): >128 µg/mL
- MIC Enterococcus faecalis (GC 4554) (Enterococcus sp.; [5]): >128 µg/mL
- MIC Enterococcus faecalis (GC 6189) (Enterococcus sp.; [6]): >128 µg/mL
- MIC Enterococcus faecium (GC 2243) (Enterococcus sp.; Enterococcus faecium (GC 2243)): >128 µg/mL
- MIC Enterococcus faecium (GC 4556) (Enterococcus sp.; Enterococcus faecium (GC 4556)): >128 µg/mL
- MIC Enterococcus faecium (GC 4557) (Enterococcus sp.; Enterococcus faecium (GC 4557)): >128 µg/mL
- MIC Enterococcus avium (GC 4558) (Enterococcus sp.): 128 µg/mL (≈ 93.7 µM)
- MIC Enterococcus faecalis (ATCC 29212) (Enterococcus sp.): >128 µg/mL
- MIC Enterococcus faecalis (GC 2242) (Enterococcus sp.): >128 µg/mL
- MIC Enterococcus faecalis (GC 2691) (Enterococcus sp.): >128 µg/mL
- MIC Enterococcus faecalis (GC 3059) (Enterococcus sp.): >128 µg/mL
- MIC Enterococcus faecalis (GC 4552) (Enterococcus sp.): >128 µg/mL
- MIC Enterococcus faecalis (GC 4553) (Enterococcus sp.): >128 µg/mL
- MIC Enterococcus faecalis (GC 4554) (Enterococcus sp.): >128 µg/mL
- MIC Enterococcus faecalis (GC 6189) (Enterococcus sp.): >128 µg/mL
- MIC Enterococcus faecium (GC 2243) (Enterococcus sp.): >128 µg/mL
- MIC Enterococcus faecium (GC 4556) (Enterococcus sp.): >128 µg/mL
- MIC Enterococcus faecium (GC 4557) (Enterococcus sp.): >128 µg/mL
- MIC Enterococcus faecalis (GC 2242) (Enterococcus sp.; strain GC 2242): >128 µg/mL
- MIC Enterococcus faecalis (GC 2691) (Enterococcus sp.; strain GC 2691): >128 µg/mL
- MIC Enterococcus faecalis (GC 3059) (Enterococcus sp.; strain GC 3059): >128 µg/mL
- MIC Streptococcus agalactiae (GC 4564) (Streptococcus sp.): 128 µg/mL (≈ 93.7 µM)
- MIC Streptococcus pneumoniae (ATCC 6301) (Streptococcus sp.): >128 µg/mL
- MIC Streptococcus pneumoniae (GC 1894) (Streptococcus sp.): 128 µg/mL (≈ 93.7 µM)
- MIC Streptococcus pneumoniae (GC 4565) (Streptococcus sp.): >128 µg/mL
- MIC Streptococcus pyogenes (GC 4563) (Streptococcus sp.): >128 µg/mL
- MIC Streptococcus pneumoniae (ATCC 6301) (Streptococcus sp.; strain ATCC 6301): >128 µg/mL
- MIC Streptococcus pneumoniae (GC 1894) (Streptococcus sp.; strain GC 1894): 128 µg/mL (≈ 93.7 µM)
- MIC Streptococcus pyogenes (GC 4563) (Streptococcus sp.; strain GC 4563): >128 µg/mL
- MIC Streptococcus agalactiae (GC 4564) (Streptococcus sp.; strain GC 4564): 128 µg/mL (≈ 93.7 µM)
- MIC Streptococcus pneumoniae (GC 4565) (Streptococcus sp.; strain GC 4565): >128 µg/mL

Structure (SMILES): CC(c1ccccc1)C1NC(=O)CNC(=O)C(CO)NC(=O)C(C(O)C2CN(Cc3ccc(-c4ccccc4)cc3)C(=N)N2C2OC(CO)C(O)C(O)C2O)NC(=O)C(C(O)C2CNC(=N)N2)NC(=O)C(Cc2ccc(OC3OC(CO)C(OC4OC(CO)C(O)C(O)C4O)C(O)C3O)cc2)NC1=O (centres unmarked) [Example 66a]
- MIC Escherichia coli (ATCC 25922) (Escherichia coli): >128 µg/mL
- MIC Escherichia coli (GC 4559) (Escherichia coli): >128 µg/mL
- MIC Escherichia coli (GC 4560) (Escherichia coli): 8 µg/mL (≈ 5.47 µM)
- Anatomical Pathology (Day 10), Heart [1]: 0
- Anatomical Pathology (Day 10), Kidney [1]: ++
- MIC Staphylococcus aureus (ATCC 29213) (Staphylococcus sp.): >128 µg/mL
- MIC Staphylococcus aureus (GC 1131) (Staphylococcus sp.): >128 µg/mL
- MIC Staphylococcus aureus (GC 3051) (Staphylococcus sp.): >128 µg/mL
- MIC Staphylococcus aureus (GC 3053) (Staphylococcus sp.): >128 µg/mL
- MIC Staphylococcus aureus (GC 4541) (Staphylococcus sp.): >128 µg/mL
- MIC Staphylococcus aureus (GC 4542) (Staphylococcus sp.): >128 µg/mL
- MIC Staphylococcus aureus-SMITH (GC 4543) (Staphylococcus sp.): >128 µg/mL
- MIC Staphylococcus aureus (GC 4544) (Staphylococcus sp.): >128 µg/mL
- MIC Staphylococcus aureus (GC 4545) (Staphylococcus sp.): >128 µg/mL
- MIC Staphylococcus haemolyticus (GC 4546) (Staphylococcus sp.): >128 µg/mL
- MIC Coagulase Negative Staphylococcus (GC 4547) (Staphylococcus sp.): >128 µg/mL
- MIC Coagulase Negative Staphylococcus (GC 4548) (Staphylococcus sp.): >128 µg/mL
- MIC Coagulase Negative Staphylococcus (GC 4549) (Staphylococcus sp.): >128 µg/mL
- MIC Coagulase Negative Staphylococcus (GC 4551) (Staphylococcus sp.): >128 µg/mL
- MIC Enterococcus avium (GC 4558) (Enterococcus sp.; Enterococcus avium (GC 4558)): 128 µg/mL (≈ 87.6 µM)
- MIC Enterococcus faecalis (ATCC 29212) (Enterococcus sp.; [2]): >128 µg/mL
- MIC Enterococcus faecalis (GC 4552) (Enterococcus sp.; [3]): >128 µg/mL
- MIC Enterococcus faecalis (GC 4553) (Enterococcus sp.; [4]): >128 µg/mL
- MIC Enterococcus faecalis (GC 4554) (Enterococcus sp.; [5]): >128 µg/mL
- MIC Enterococcus faecalis (GC 6189) (Enterococcus sp.; [6]): >128 µg/mL
- MIC Enterococcus faecium (GC 2243) (Enterococcus sp.; Enterococcus faecium (GC 2243)): >128 µg/mL
- MIC Enterococcus faecium (GC 4556) (Enterococcus sp.; Enterococcus faecium (GC 4556)): >128 µg/mL
- MIC Enterococcus faecium (GC 4557) (Enterococcus sp.; Enterococcus faecium (GC 4557)): >128 µg/mL
- MIC Enterococcus avium (GC 4558) (Enterococcus sp.): 128 µg/mL (≈ 87.6 µM)
- MIC Enterococcus faecalis (ATCC 29212) (Enterococcus sp.): >128 µg/mL
- MIC Enterococcus faecalis (GC 2242) (Enterococcus sp.): >128 µg/mL
- MIC Enterococcus faecalis (GC 2691) (Enterococcus sp.): >128 µg/mL
- MIC Enterococcus faecalis (GC 3059) (Enterococcus sp.): >128 µg/mL
- MIC Enterococcus faecalis (GC 4552) (Enterococcus sp.): >128 µg/mL
- MIC Enterococcus faecalis (GC 4553) (Enterococcus sp.): >128 µg/mL
- MIC Enterococcus faecalis (GC 4554) (Enterococcus sp.): >128 µg/mL
- MIC Enterococcus faecalis (GC 6189) (Enterococcus sp.): >128 µg/mL
- MIC Enterococcus faecium (GC 2243) (Enterococcus sp.): >128 µg/mL
- MIC Enterococcus faecium (GC 4556) (Enterococcus sp.): >128 µg/mL
- MIC Enterococcus faecium (GC 4557) (Enterococcus sp.): >128 µg/mL
- MIC Enterococcus faecalis (GC 2242) (Enterococcus sp.; strain GC 2242): >128 µg/mL
- MIC Enterococcus faecalis (GC 2691) (Enterococcus sp.; strain GC 2691): >128 µg/mL
- MIC Enterococcus faecalis (GC 3059) (Enterococcus sp.; strain GC 3059): >128 µg/mL
- MIC Streptococcus agalactiae (GC 4564) (Streptococcus sp.): >128 µg/mL
- MIC Streptococcus pneumoniae (ATCC 6301) (Streptococcus sp.): >128 µg/mL
- MIC Streptococcus pneumoniae (GC 1894) (Streptococcus sp.): >128 µg/mL
- MIC Streptococcus pneumoniae (GC 4565) (Streptococcus sp.): >128 µg/mL
- MIC Streptococcus pyogenes (GC 4563) (Streptococcus sp.): >128 µg/mL
- MIC Streptococcus pneumoniae (ATCC 6301) (Streptococcus sp.; strain ATCC 6301): >128 µg/mL
- MIC Streptococcus pneumoniae (GC 1894) (Streptococcus sp.; strain GC 1894): >128 µg/mL
- MIC Streptococcus pyogenes (GC 4563) (Streptococcus sp.; strain GC 4563): >128 µg/mL
- MIC Streptococcus agalactiae (GC 4564) (Streptococcus sp.; strain GC 4564): >128 µg/mL
- MIC Streptococcus pneumoniae (GC 4565) (Streptococcus sp.; strain GC 4565): >128 µg/mL
